Test results taken from ChEMBL document CHEMBL3217418, “Design, synthesis and biological activity evaluation of regioisomeric spiro-(indoline-isoxazolidines) in the inhibition of TNF--induced ICAM-1 expression on human endothelial cells” (Medchemcomm, 2012).
pIC50: −log10 of the molar value. Active and inactive are the calls of the source. The calls are words filed in the database; no cut-off is given here.

Legend:
[1] = system: HUVEC; assay: Antiinflammatory activity in HUVEC assessed as inhibition of TNFalpha-induced ICAM-1 expression incubated for 2 hrs prior to TNFalpha challenge measured after 16 hrs by ELISA; assay type: functional, cell-based; details: Homo sapiens
[2] = Cytotoxicity against HUVEC assessed as concentration at which viability is > 95 % after 24 hrs by MTT assay; assay type: cell-based; details: human, HUVEC cells; read-out: MTD
[3] = Cytotoxicity against HUVEC assessed as cell viability after 24 hrs by MTT assay relative to control; assay type: cell-based; design: concentration or dose not given beside the values; details: human, HUVEC cells; read-out: Activity
[4] = target: Transcription factor p65 (Homo sapiens) (UniProt Q04206); assay: Inhibition of NF-kappaB p65 subunit translocation from cytoplasm to nucleus in HUVEC at 100 uM incubated for 2 hrs prior to TNFalpha challenge measured after 30 mins by SDS-PAGE
[5] = system: Neutrophil; assay: Inhibition of human neutrophil adhesion to human endothelial cells incubated for 2 hrs prior to TNFalpha challenge measured after 6 hrs by spectroscopy; assay type: functional, cell-based
[6] = target: Transcription factor p65 (Homo sapiens) (UniProt Q04206); assay: Inhibition of NF-kappaB p65 subunit translocation from cytoplasm to nucleus in HUVEC at 1 to 100 uM incubated for 2 hrs prior to TNFalpha challenge measured after 30 mins by SDS-PAGE
[7] = target: Transcription factor p65 (Homo sapiens) (UniProt Q04206); assay: Inhibition of NF-kappaB p65 subunit translocation from cytoplasm to nucleus in HUVEC assessed as NF-kappaB p65 subunit level in cytoplasm at 1 to 100 uM incubated for 2 hrs prior to TNFalpha challenge measured after 30 mins by densitometry
[8] = target: Transcription factor p65 (Homo sapiens) (UniProt Q04206); assay: Inhibition of NF-kappaB p65 subunit translocation from cytoplasm to nucleus in HUVEC assessed as NF-kappaB p65 subunit level in nuclear extract at 1 to 100 uM incubated for 2 hrs prior to TNFalpha challenge measured after 30 mins by densitometry

Chain of Transcription factor p65 (Homo sapiens) (Q04206 whole entry): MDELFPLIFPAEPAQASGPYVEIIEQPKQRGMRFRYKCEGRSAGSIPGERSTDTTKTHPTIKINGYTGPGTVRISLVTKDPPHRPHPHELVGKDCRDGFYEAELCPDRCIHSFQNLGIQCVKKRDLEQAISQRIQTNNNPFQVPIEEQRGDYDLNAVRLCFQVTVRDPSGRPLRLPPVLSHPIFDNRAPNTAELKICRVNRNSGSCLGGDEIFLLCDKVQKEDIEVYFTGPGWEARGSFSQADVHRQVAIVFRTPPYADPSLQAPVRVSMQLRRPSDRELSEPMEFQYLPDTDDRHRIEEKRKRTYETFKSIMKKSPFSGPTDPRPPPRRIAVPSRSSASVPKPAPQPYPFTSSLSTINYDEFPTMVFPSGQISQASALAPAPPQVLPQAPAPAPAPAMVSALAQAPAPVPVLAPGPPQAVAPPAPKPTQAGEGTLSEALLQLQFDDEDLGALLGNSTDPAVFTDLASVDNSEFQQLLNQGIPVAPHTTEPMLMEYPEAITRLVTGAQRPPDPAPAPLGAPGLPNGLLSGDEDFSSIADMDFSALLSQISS

Compound: CCOC(=O)C1ON(c2ccccc2)C(c2cccc(C)c2)C12C(=O)Nc1ccccc12 (stereo not given)
- pIC50 [1]: 4.46
- MNTC at 24 h [2]: 234 µM
- viability at 24 h [3]: 98%

Compound: CCOC(=O)C1C(c2cccc(C)c2)N(c2ccccc2)OC12C(=O)Nc1ccccc12 (stereo not given)
- pIC50 [1]: 4.24
- MNTC at 24 h [2]: 234 µM
- viability at 24 h [3]: 96%

Compound: CCOC(=O)C1C(c2cccc([N+](=O)[O-])c2)N(c2ccccc2)OC12C(=O)Nc1ccccc12 (stereo not given)
- pIC50 [1]: 4.35
- MNTC at 24 h [2]: 218 µM
- viability at 24 h [3]: 98%

Compound: CCOC(=O)C1C(c2cccc(OC)c2OC)N(c2ccccc2)OC12C(=O)Nc1ccc(F)cc12 (stereo not given)
- pIC50 [1]: 4.57
- MNTC at 24 h [2]: 102 µM
- viability at 24 h [3]: 99%

Compound: CCOC(=O)C1C(c2cccc(Cl)c2)N(c2ccccc2)OC12C(=O)Nc1ccccc12 (stereo not given)
- pIC50 [1]: 4.46
- MNTC at 24 h [2]: 223 µM
- viability at 24 h [3]: 97%

Compound: CCOC(=O)C1ON(c2ccccc2)C(c2cccc(OC)c2OC)C12C(=O)Nc1ccc(F)cc12 (stereo not given)
- pIC50 [1]: 4.49
- MNTC at 24 h [2]: 102 µM
- viability at 24 h [3]: 98%

Compound: CCOC(=O)C1ON(c2ccccc2)C(c2cccc(C)c2)C12C(=O)Nc1ccc(F)cc12 (stereo not given)
- pIC50 [1]: 4.35
- MNTC at 24 h [2]: 112 µM
- viability at 24 h [3]: 98%

Compound: S=C(S)N1CCCC1
- inhibition [4]: Active

Compound: CCOC(=O)C1ON(c2ccccc2)C(c2cccc(F)c2)C12C(=O)Nc1ccc(F)cc12 (stereo not given)
- pIC50 [1]: 4.18
- MNTC at 24 h [2]: 111 µM
- viability at 24 h [3]: 95%

Compound: O=C(/C=C/C=C/c1ccc2c(c1)OCO2)N1CCCCC1 [PIPERINE]
- pIC50 [1]: 4.00
- MNTC at 24 h [2]: 250 µM
- viability at 24 h [3]: 98%

Compound: CCOC(=O)C1ON(c2ccccc2)C(c2cccc(F)c2)C12C(=O)Nc1ccccc12 (stereo not given)
- pIC50 [1]: < 3.79
- MNTC at 24 h [2]: 231 µM
- viability at 24 h [3]: 98%

Compound: CCOC(=O)C1ON(c2ccccc2)C(c2ccc(F)cc2)C12C(=O)Nc1ccc(F)cc12 (stereo not given)
- pIC50 [1]: < 3.95
- MNTC at 24 h [2]: 111 µM
- viability at 24 h [3]: 96%

Compound: CCOC(=O)C1ON(c2ccccc2)C(c2ccccc2F)C12C(=O)Nc1ccc(F)cc12 (stereo not given)
- pIC50 [1]: 4.29
- MNTC at 24 h [2]: 111 µM
- viability at 24 h [3]: 96%

Compound: CCOC(=O)C1ON(c2ccccc2)C(c2ccc(C(F)(F)F)cc2)C12C(=O)Nc1ccc(F)cc12 (stereo not given)
- pIC50 [1]: 4.24
- MNTC at 24 h [2]: 100 µM
- viability at 24 h [3]: 96%

Compound: CCOC(=O)C1ON(c2ccccc2)C(c2ccc(OCC)cc2)C12C(=O)Nc1ccc(F)cc12 (stereo not given)
- pIC50 [1]: 4.92
- pIC50 [5]: 4.90
- inhibition [5]: Dose-dependent effect
- inhibition [6]: Dose-dependent effect
- inhibition [7]: Active
- inhibition [8]: Active
- MNTC at 24 h [2]: 105 µM
- viability at 24 h [3]: 97%

Compound: CCOC(=O)C1ON(c2ccccc2)C(c2ccc(Br)cc2)C12C(=O)Nc1ccccc12 (stereo not given)
- pIC50 [1]: 4.29
- MNTC at 24 h [2]: 203 µM
- viability at 24 h [3]: 98%

Compound: CCOC(=O)C1ON(c2ccccc2)C(c2cccc(Cl)c2)C12C(=O)Nc1ccccc12 (stereo not given)
- pIC50 [1]: 4.60
- MNTC at 24 h [2]: 223 µM
- viability at 24 h [3]: 96%

Compound: CCOC(=O)C1C(c2ccc([N+](=O)[O-])cc2)N(c2ccccc2)OC12C(=O)Nc1ccccc12 (stereo not given)
- pIC50 [1]: < 3.66
- MNTC at 24 h [2]: 218 µM
- viability at 24 h [3]: 97%

Compound: CCOC(=O)C1C(c2ccc(Br)cc2)N(c2ccccc2)OC12C(=O)Nc1ccccc12 (stereo not given)
- pIC50 [1]: 4.39
- MNTC at 24 h [2]: 203 µM
- viability at 24 h [3]: 96%

Compound: CCOC(=O)C1ON(c2ccccc2)C(c2ccc([N+](=O)[O-])cc2)C12C(=O)Nc1ccccc12 (stereo not given)
- pIC50 [1]: < 3.66
- MNTC at 24 h [2]: 218 µM
- viability at 24 h [3]: 97%

Compound: CCOC(=O)C1ON(c2ccccc2)C(c2cccc(Br)c2)C12C(=O)Nc1ccccc12 (stereo not given)
- pIC50 [1]: 4.24
- MNTC at 24 h [2]: 203 µM
- viability at 24 h [3]: 95%

Compound: CCOC(=O)C1ON(c2ccccc2)C(c2ccc(F)c(F)c2)C12C(=O)Nc1ccc(F)cc12 (stereo not given)
- pIC50 [1]: 4.21
- MNTC at 24 h [2]: 107 µM
- viability at 24 h [3]: 95%

Compound: CCOC(=O)C1ON(c2ccccc2)C(c2cccc([N+](=O)[O-])c2)C12C(=O)Nc1ccccc12 (stereo not given)
- pIC50 [1]: 3.77
- MNTC at 24 h [2]: 218 µM
- viability at 24 h [3]: 96%

Compound: CCOC(=O)C1ON(c2ccccc2)C(c2ccc(Br)cc2)C12C(=O)Nc1ccc(F)cc12 (stereo not given)
- pIC50 [1]: 4.46
- MNTC at 24 h [2]: 98 µM
- viability at 24 h [3]: 98%

Compound: CCOC(=O)C1ON(c2ccccc2)C(c2cc(OC)c(OC)c(OC)c2)C12C(=O)Nc1ccc(F)cc12 (stereo not given)
- pIC50 [1]: 4.54
- MNTC at 24 h [2]: 96 µM
- viability at 24 h [3]: 97%

Compound: CCOC(=O)C1C(c2ccc(F)cc2)N(c2ccccc2)OC12C(=O)Nc1ccccc12 (stereo not given)
- pIC50 [1]: 3.84
- MNTC at 24 h [2]: 231 µM
- viability at 24 h [3]: 96%

Compound: CCOC(=O)C1ON(c2ccccc2)C(c2ccc(F)cc2)C12C(=O)Nc1ccccc12 (stereo not given)
- pIC50 [1]: 4.29
- MNTC at 24 h [2]: 116 µM
- viability at 24 h [3]: 96%

Compound: CCOC(=O)C1ON(c2ccccc2)C(c2ccc(C)cc2)C12C(=O)Nc1ccccc12 (stereo not given)
- pIC50 [1]: 4.28
- MNTC at 24 h [2]: 234 µM
- viability at 24 h [3]: 99%

Compound: CCOC(=O)C1ON(c2ccccc2)C(c2ccc(OC)cc2)C12C(=O)Nc1ccc(F)cc12 (stereo not given)
- pIC50 [1]: 4.38
- MNTC at 24 h [2]: 108 µM
- viability at 24 h [3]: 96%

Compound: CCOC(=O)C1C(c2ccc(Cl)cc2)N(c2ccccc2)OC12C(=O)Nc1ccccc12 (stereo not given)
- pIC50 [1]: < 3.65
- MNTC at 24 h [2]: 223 µM
- viability at 24 h [3]: 96%

Compound: CCOC(=O)C1C(c2ccc(C)cc2)N(c2ccccc2)OC12C(=O)Nc1ccccc12 (stereo not given)
- pIC50 [1]: 4.51
- MNTC at 24 h [2]: 234 µM
- viability at 24 h [3]: 96%

Compound: CCOC(=O)C1ON(c2ccccc2)C(c2ccc(C#N)cc2)C12C(=O)Nc1ccc(F)cc12 (stereo not given)
- pIC50 [1]: 4.32
- MNTC at 24 h [2]: 110 µM
- viability at 24 h [3]: 96%

Compound: CCOC(=O)C1C(c2cccc(Br)c2)N(c2ccccc2)OC12C(=O)Nc1ccccc12 (stereo not given)
- pIC50 [1]: 4.00
- MNTC at 24 h [2]: 203 µM
- viability at 24 h [3]: 95%

Compound: CCOC(=O)C1C(c2cccc(F)c2)N(c2ccccc2)OC12C(=O)Nc1ccccc12 (stereo not given)
- pIC50 [1]: 4.46
- MNTC at 24 h [2]: 116 µM
- viability at 24 h [3]: 98%

Compound: CCOC(=O)C1C(c2ccc(C#N)cc2)N(c2ccccc2)OC12C(=O)Nc1ccc(F)cc12 (stereo not given)
- pIC50 [1]: 4.31
- MNTC at 24 h [2]: 110 µM
- viability at 24 h [3]: 98%

Compound: CCOC(=O)C1ON(c2ccccc2)C(c2ccc(Cl)cc2)C12C(=O)Nc1ccccc12 (stereo not given)
- pIC50 [1]: 3.83
- MNTC at 24 h [2]: 223 µM
- viability at 24 h [3]: 96%

Compound: CCOC(=O)C1ON(c2ccccc2)C(c2ccc([N+](=O)[O-])cc2)C12C(=O)Nc1ccc(F)cc12 (stereo not given)
- pIC50 [1]: 4.49
- MNTC at 24 h [2]: 105 µM
- viability at 24 h [3]: 97%

Compound: CCOC(=O)C1ON(c2ccccc2)C(c2ccc(Cl)cc2)C12C(=O)Nc1ccc(F)cc12 (stereo not given)
- pIC50 [1]: 4.27
- MNTC at 24 h [2]: 107 µM
- viability at 24 h [3]: 96%

Compound: CCOC(=O)C1ON(c2ccccc2)C(c2ccc(N(C)C)cc2)C12C(=O)Nc1ccc(F)cc12 (stereo not given)
- pIC50 [1]: 4.59
- MNTC at 24 h [2]: 110 µM
- viability at 24 h [3]: 96%
